Where two headings read alike, the source gives them in different places. One block for each molecule: values may come before it.
What was measured:
[1] = Brain/cerebrospinal fluid migration test; assay type: in vivo, SD male rats; details: rat; for concentration at 30 min / concentration at 2 h: male, SD
Procedure: A test compound was orally or intravenously administered to SD male rats (7 to 10 week-age, 200 to 400 g). While they were anesthetized with ether for a predetermined period of time, the whole blood was collected from them via their abdominal aorta, using a heparin-processed syringe. Then, their occipital skin was cut open, and a dental 30 G needle was stuck into the cervical vertebrae and further into the subarachnoid cavity. Via the tube connected to the dental 30 G needle, from 50 to 100 μL of the cerebrospinal fluid was collected in a 1 mL-syringe, and then the brain was taken out. The blood sample was centrifuged (4° C., 6000 rpm, 10 min), and the resulting plasma was stirred with ethanol of three times (including an internal standard substance) added thereto. The brain sample was homogenized with 2 mL of water added thereto, and a part of it was taken out and stirred with ethanol of three times (including an internal standard substance) added thereto. The cerebrospinal fluid was homogenized with 3 times its volume of ethanol (including an internal standard substance) added thereto. The above samples were left at −20° C. for 20 minutes, then centrifuged (4° C., 12,000 g, 10 min), and the supernatant was analyzed through LC/MS/MS. According to a relative calibration curve method, the concentration of the test compound in the plasma, in the brain and in the cerebrospinal fluid was determined.

[2] = biological target: T1, human histamine-3 receptor (Homo sapiens, UniProt Q9Y5N1); test: Histamine analogue-binding inhibition test ([3H]N-α-methylhistamine, membrane specimen); details: result in words
T1 construct: expressed in transfected cells; host or cells: HEK293 and CHO-K1 (American Type Culture Collection)
T1 sequence (Q9Y5N1 whole entry): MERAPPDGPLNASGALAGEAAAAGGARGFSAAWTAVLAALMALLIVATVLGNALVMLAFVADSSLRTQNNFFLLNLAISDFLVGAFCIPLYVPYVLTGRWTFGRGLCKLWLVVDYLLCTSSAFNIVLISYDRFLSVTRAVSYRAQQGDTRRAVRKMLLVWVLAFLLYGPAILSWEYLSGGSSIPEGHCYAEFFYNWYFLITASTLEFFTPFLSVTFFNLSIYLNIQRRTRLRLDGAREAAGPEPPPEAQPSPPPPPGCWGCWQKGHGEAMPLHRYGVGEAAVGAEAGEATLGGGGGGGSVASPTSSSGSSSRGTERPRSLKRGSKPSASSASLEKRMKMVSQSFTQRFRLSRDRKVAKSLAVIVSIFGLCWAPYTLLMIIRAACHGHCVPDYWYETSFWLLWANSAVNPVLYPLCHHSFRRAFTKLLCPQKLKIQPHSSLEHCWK
Procedure: A membrane specimen prepared from the cells having expressed a histamine-3 receptor was incubated in an assay buffer (50 mM Tris buffer, pH 7.4) along with a test compound and 20,000 cpm [^3H]N-α-methylhistamine (by NEN) therein, at 25° C. for 2 hours, and then filtered through a glass filter GF/C. After washed with 50 mM Tris buffer (pH 7.4), the radioactivity on the glass filter was determined. The non-specific binding was determined in the presence of 10 μM thioperamide (by Sigma), and the 50% inhibitory concentration (IC50) of the test compound to the specific N-α-methylhistamine binding was calculated [see Molecular Pharmacology, Vol. 55, p.

melting point: 182.2 to 205.2 °C
Structure (SMILES): COc1ccnc2c(=O)n(C)c(-c3ccc(OC4CCN(C5CCC5)CC4)cc3)nc12 [Example 59, 2-{4-[(1-cyclobutylpiperidin-4-yl)oxy]phenyl}-8-methoxy-3-methylpyrido[3,2-d]pyrimidin-4(3H)-one]

Structure (SMILES): Cn1c(-c2ccc(OCCCN3CCCC3)cc2)nc2ccccc2c1=O [Example 16, 3-Methyl-2-[4-(3-pyrrolidin-1-ylpropoxy)phenyl]-4(3H)-quinazoline]
concentration at 30 min ([1]; cerebrospinal fluid, intravenous administration 3 mg/kg, in 30 minutes, read-out: concentration in the cerebrospinal fluid): 134 nM | concentration at 30 min ([1]; plasma, intravenous administration 3 mg/kg, in 30 minutes, read-out: concentration in the plasma): 1360 nM | concentration in the brain ([1]; intravenous administration 3 mg/kg, in 30 minutes): 2.22 nmol/g | inhibition of the binding of N-alpha-methylhistamine (histamine analogue) to histamine-H3 receptor [2]: strongly inhibited

concentration at 2 h ([1]; cerebrospinal fluid, oral administration 10 mg/kg, in 2 hours, read-out: concentration in the cerebrospinal fluid): 27 nM | concentration at 2 h ([1]; plasma, oral administration 10 mg/kg, in 2 hours, read-out: concentration in the plasma): 700 nM | concentration in the brain ([1]; oral administration 10 mg/kg, in 2 hours): 1.45 nmol/g
Structure (SMILES): Cn1c(-c2ccc(OC3CCN(C4CC4)CC3)cc2)nc2ccccc2c1=O [Example 89, 3-Methyl-2-[4-(1-cyclopropyl-4-piperidinyloxy)-phenyl]-4(3H)-quinazolinone]

From patent US7960394B2, “Quinazoline derivative” (Banyu Pharmaceutical Co., Ltd., priority 2004, dated 2011)
